Test results reported in US10945932B2, “Prebiotic oral care compositions containing carboxylic acids” (COLGATE-PALMOLIVE COMPANY, priority 2013, dated 2021).
Read-outs that look alike come from different tables or passages of the source.

Experiments:
Actinomyces naeslundii [1] = test: Metabolic activity, Biolog phenotype microarray; format: cell-based; details: A naeslundii
Experimental: (§1) The extent of metabolic activity of the tested bacteria in the presence of the above-mentioned acids after 24 hours and 48 hours was investigated through a high throughput phenotype microarray system (PM) for microbial cells (Biolog Inc.). Each PM can contain up to 95 different biochemical compounds (e.g. organic acids) that may act as substrates for bacteria as well as one negative control, not containing the substrates. Microarray plates were used in which the different wells of each plate were pre-loaded (by the manufacturer, Biolog Inc.) with different organic acids to be tested. Each bacterial species was tested using a separate microarray plate. Thus, a single bacterial species was tested with a variety of organic acids on each particular plate. The microarrays are based on redox technology, using cell respiration as a universal reporter. […] The observation of this color change indicates which of the substrates improve the metabolic activity and health of the cells.
(§2) Each bacterial species was collected from blood agar plates (incubated for 48 hours anaerobically at 37° C.) and transferred to an IF-0 Base inoculation fluid (Biolog Inc.), which is a nutritionally poor medium. […] A 1:5 dilution of this suspension was prepared by mixing 3 mL of the 42% transmittance cell suspension with 15 mL of an inoculation fluid (which inoculation fluid was formed by mixing 11.6 mL sterile water, 62.5 mL IF-0 base inoculation fluid and 0.9 mL of the tetrazolium dye “Biolog Redox Dye mix D”), resulting in a final cell density which was equal to 85% transmittance using a BioRad SmartSpec 3000 Photometer. For each of the acids tested, the microarray plate (obtained from the supplier (Biolog Inc.) with acid already present in the relevant wells in powder form) was directly inoculated with 100 μL/well of this 85% transmittance cell suspension.
(§3) All plates were incubated in an anaerobic atmosphere at 37° C. Color changes were measured spectrophotometrically at 492 nm (Thermo Scientific Multiskan Ascent) at 24 hrs and 48 hrs using the same plate at both time points.
(§4) The controls were also carried out three times, as above.

Actinomyces viscosus [2] = test: Metabolic activity, Biolog phenotype microarray; format: cell-based; details: A viscosus
Experimental: as §1, §2, §3, §4

[3] = test system: Aggregatibacter actinomycetemcomitans; test: Metabolic activity, Biolog phenotype microarray; format: cell-based; details: A actinomycetemcomitans
Experimental: as §1, §2, §3, §4

Capnocytophaga sputigena = test: Metabolic activity, Biolog phenotype microarray; format: cell-based; details: C sputigena
Experimental: as §1, §2, §3, §4

Fusobacterium nucleatum = test: Metabolic activity, Biolog phenotype microarray; format: cell-based; details: F nucleatum
Experimental: as §1, §2, §3, §4

Porphyromonas gingivalis [4] = test: Metabolic activity, Biolog phenotype microarray; format: cell-based; details: P gingivalis
Experimental: as §1, §2, §3, §4

Prevotella intermedia = test: Metabolic activity, Biolog phenotype microarray; format: cell-based; details: P intermedia
Experimental: as §1, §2, §3, §4

Streptococcus gordonii = test: Metabolic activity, Biolog phenotype microarray; format: cell-based; details: S gordonii
Experimental: as §1, §2, §3, §4

Streptococcus mitis [5] = test: Metabolic activity, Biolog phenotype microarray; format: cell-based; details: S mitis
Experimental: as §1, §2, §3, §4

Streptococcus mutans = test: Metabolic activity, Biolog phenotype microarray; format: cell-based; details: S mutans
Experimental: as §1, §2, §3, §4

Streptococcus salivarius = test: Metabolic activity, Biolog phenotype microarray; format: cell-based; details: S salivarius
Experimental: as §1, §2, §3, §4

Streptococcus sanguinis = test: Metabolic activity, Biolog phenotype microarray; format: cell-based; details: S sanguinis
Experimental: as §1, §2, §3, §4

Streptococcus sobrinus [6] = test: Metabolic activity, Biolog phenotype microarray; format: cell-based; details: S sobrinus
Experimental: as §1, §2, §3, §4

Tannerella forsythia [7] = test: Metabolic activity, Biolog phenotype microarray; format: cell-based; details: T forsythia
Experimental: as §1, §2, §3, §4

Veillonella parvula [8] = test: Metabolic activity, Biolog phenotype microarray; format: cell-based; details: V parvula
Experimental: as §1, §2, §3, §4

[9] = test system: Aggregatibacter actinomycetemcomitans; details: A actinomycetemcomitans, BHI
Experimental: (§5) Late exponential growth phase liquid cultures were prepared by transferring the respective bacterium from blood agar plates to BHI and overnight incubation at 37° C. in an anaerobic atmosphere for A. viscosus, V. parvula, F. nucleatum, P. gingivalis, P. intermedia, T forsythia, A. naeslundii, and C. sputigena, and in a 5% CO2 environment for S. salivarius, S. sanguinis, S. mitis, A. actinomycetemcomitans, S. mutans, S. sobrinus and S. gordonii. Overnight cultures were transferred to BHI and adjusted to a concentration of 1×10^7 CFU/ml (colony forming units per ml) by measuring the optical density at 600 nm (OD600) (BioRad SmartSpec 3000). For each strain, 200 μl of the bacterial suspension was added to a 96-well plate containing 20 μl of the respective carboxylic acids. Final concentrations of the carboxylic acids were set to 5, 10, 20 and 25 μmol/ml. […] Plates were incubated as previously described.
(§6) For each combination of bacterium/carboxylic acid, and for each of their respective controls (i.e. the particular bacterium in the nutritionally rich medium with no carboxylic acid), the optical density was measured at 630 nm (OD630) at 0 h, 24 h and 48 h (Thermo Scientific Multiskan Ascent). Additionally, the OD630 for combinations of bacterium/carboxylic acid grown in a 5% CO2 environment were also measured every hour between 0 h and 9 h.
(§7) The experiment was carried out on three different days (thus providing 3 biological replicas) and on each day the experiment was carried out in quadruple (thus providing 4 technical replicas) for each combination of bacterium with carboxylic acid and for each control. For each day and for each combination, the average (mean) of the values obtained (as detailed above) for the four technical replicas was calculated to provide a single value for each combination on each day.

Porphyromonas gingivalis [10] = details: P gingivalis, BHI
Experimental: as §5, §6, §7

Streptococcus sobrinus [11] = details: S sobrinus, BHI
Experimental: as §5, §6, §7

Tannerella forsythia [12] = details: T forsythia, BHI
Experimental: as §5, §6, §7

Actinomyces naeslundii [13] = details: A naeslundii, BHI
Experimental: as §5, §6, §7

Actinomyces viscosus [14] = details: A viscosus, BHI
Experimental: as §5, §6, §7

Veillonella parvula [15] = details: V parvula, BHI
Experimental: as §5, §6, §7

Streptococcus mitis [16] = details: S mitis, BHI
Experimental: as §5, §6, §7

[17] = test system: beneficial oral bacteria and pathogenic oral bacteria; details: over 48 hours, threshold value of 1.25
Text: The beneficial oral bacteria tested were Streptococcus mitis, Streptococcus salivarius, Streptococcus sanguinis, Actinomyces viscosus, Streptococcus gordonii, Capnocytophaga sputigena, Actinomyces naeslundii and Veillonella parvula. The pathogenic oral bacteria tested were Streptococcus mutans, Prevotella intermedia, Porphyromonas gingivalis, Fusobacterium nucleatum, Tannerella forsythia, Aggregatibacter actinomycetemcomitans and Streptococcus sobrinus.
as §5, §6, §7
This value was selected in order to exclude low-stimulating metabolites and avoid false positive results.

## N[C@@H](CC(=O)O)C(=O)O [L-aspartic acid]
Actinomyces naeslundii [1]; 24 hrs
  metabolic activity, OD at 492 nm divided by OD of control (control = 1): 0.8814
Actinomyces naeslundii [1]; 48 hrs
  metabolic activity, OD at 492 nm divided by OD of control (control = 1): 0.8283
Actinomyces viscosus [2]; 24 hrs
  metabolic activity, OD at 492 nm divided by OD of control (control = 1): 0.9434
Actinomyces viscosus [2]; 48 hrs
  metabolic activity, OD at 492 nm divided by OD of control (control = 1): 0.9275
[3]; 24 hrs
  metabolic activity, OD at 492 nm divided by OD of control (control = 1): 1.4358
[3]; 48 hrs
  metabolic activity, OD at 492 nm divided by OD of control (control = 1): 1.6253
Capnocytophaga sputigena; 24 hrs
  metabolic activity, OD at 492 nm divided by OD of control (control = 1): 0.7060
Capnocytophaga sputigena; 48 hrs
  metabolic activity, OD at 492 nm divided by OD of control (control = 1): 0.7655
Fusobacterium nucleatum; 24 hrs
  metabolic activity, OD at 492 nm divided by OD of control (control = 1): 0.9201
Fusobacterium nucleatum; 48 hrs
  metabolic activity, OD at 492 nm divided by OD of control (control = 1): 0.9448
Porphyromonas gingivalis [4]; 24 hrs
  metabolic activity, OD at 492 nm divided by OD of control (control = 1): 0.8910
Porphyromonas gingivalis [4]; 48 hrs
  metabolic activity, OD at 492 nm divided by OD of control (control = 1): 0.9017
Prevotella intermedia; 24 hrs
  metabolic activity, OD at 492 nm divided by OD of control (control = 1): 0.9390
Prevotella intermedia; 48 hrs
  metabolic activity, OD at 492 nm divided by OD of control (control = 1): 0.9154
Streptococcus gordonii; 24 hrs
  metabolic activity, OD at 492 nm divided by OD of control (control = 1): 0.8729
Streptococcus gordonii; 48 hrs
  metabolic activity, OD at 492 nm divided by OD of control (control = 1): 0.8488
Streptococcus mitis [5]; 24 hrs
  metabolic activity, OD at 492 nm divided by OD of control (control = 1): 1.0323
Streptococcus mitis [5]; 48 hrs
  metabolic activity, OD at 492 nm divided by OD of control (control = 1): 0.9065
Streptococcus mutans; 24 hrs
  metabolic activity, OD at 492 nm divided by OD of control (control = 1): 0.9715
Streptococcus mutans; 48 hrs
  metabolic activity, OD at 492 nm divided by OD of control (control = 1): 0.8709
Streptococcus salivarius; 24 hrs
  metabolic activity, OD at 492 nm divided by OD of control (control = 1): 0.9496
Streptococcus salivarius; 48 hrs
  metabolic activity, OD at 492 nm divided by OD of control (control = 1): 0.8503
Streptococcus sanguinis; 24 hrs
  metabolic activity, OD at 492 nm divided by OD of control (control = 1): 0.9451
Streptococcus sanguinis; 48 hrs
  metabolic activity, OD at 492 nm divided by OD of control (control = 1): 0.9195
Streptococcus sobrinus [6]; 24 hrs
  metabolic activity, OD at 492 nm divided by OD of control (control = 1): 1.0053
Streptococcus sobrinus [6]; 48 hrs
  metabolic activity, OD at 492 nm divided by OD of control (control = 1): 0.9338
Tannerella forsythia [7]; 24 hrs
  metabolic activity, OD at 492 nm divided by OD of control (control = 1): 0.9565
Tannerella forsythia [7]; 48 hrs
  metabolic activity, OD at 492 nm divided by OD of control (control = 1): 0.9575
Veillonella parvula [8]; 24 hrs
  metabolic activity, OD at 492 nm divided by OD of control (control = 1): 1.8448
Veillonella parvula [8]; 48 hrs
  metabolic activity, OD at 492 nm divided by OD of control (control = 1): 2.2760
[9]; 5 μmol/ml
  extent of growth, maximal OD630 over 48 hr divided by maximal OD of control (control = 1): 0.7612
[9]; 10 μmol/ml
  extent of growth, maximal OD630 over 48 hr divided by maximal OD of control (control = 1): 0.7493
[9]; 20 μmol/ml
  extent of growth, maximal OD630 over 48 hr divided by maximal OD of control (control = 1): 0.6806
[9]; 25 μmol/ml
  extent of growth, maximal OD630 over 48 hr divided by maximal OD of control (control = 1): 0.6885
Porphyromonas gingivalis [10]; 5 μmol/ml
  extent of growth, maximal OD630 over 48 hr divided by maximal OD of control (control = 1): 1.0608
Porphyromonas gingivalis [10]; 10 μmol/ml
  extent of growth, maximal OD630 over 48 hr divided by maximal OD of control (control = 1): 1.0376
Porphyromonas gingivalis [10]; 20 μmol/ml
  extent of growth, maximal OD630 over 48 hr divided by maximal OD of control (control = 1): 1.0578
Porphyromonas gingivalis [10]; 25 μmol/ml
  extent of growth, maximal OD630 over 48 hr divided by maximal OD of control (control = 1): 1.0084
Streptococcus sobrinus [11]; 5 μmol/ml
  extent of growth, maximal OD630 over 48 hr divided by maximal OD of control (control = 1): 0.9714
Streptococcus sobrinus [11]; 10 μmol/ml
  extent of growth, maximal OD630 over 48 hr divided by maximal OD of control (control = 1): 0.9741
Streptococcus sobrinus [11]; 20 μmol/ml
  extent of growth, maximal OD630 over 48 hr divided by maximal OD of control (control = 1): 0.9458
Streptococcus sobrinus [11]; 25 μmol/ml
  extent of growth, maximal OD630 over 48 hr divided by maximal OD of control (control = 1): 0.9644
Tannerella forsythia [12]; 5 μmol/ml
  extent of growth, maximal OD630 over 48 hr divided by maximal OD of control (control = 1): 0.9947
Tannerella forsythia [12]; 10 μmol/ml
  extent of growth, maximal OD630 over 48 hr divided by maximal OD of control (control = 1): 0.9717
Tannerella forsythia [12]; 20 μmol/ml
  extent of growth, maximal OD630 over 48 hr divided by maximal OD of control (control = 1): 1.0111
Tannerella forsythia [12]; 25 μmol/ml
  extent of growth, maximal OD630 over 48 hr divided by maximal OD of control (control = 1): 0.9935
Actinomyces naeslundii [13]; 5 μmol/ml
  extent of growth, maximal OD630 over 48 hr divided by maximal OD of control (control = 1): 0.8893
Actinomyces naeslundii [13]; 10 μmol/ml
  extent of growth, maximal OD630 over 48 hr divided by maximal OD of control (control = 1): 0.8774
Actinomyces naeslundii [13]; 20 μmol/ml
  extent of growth, maximal OD630 over 48 hr divided by maximal OD of control (control = 1): 0.9021
Actinomyces naeslundii [13]; 25 μmol/ml
  extent of growth, maximal OD630 over 48 hr divided by maximal OD of control (control = 1): 0.8435
Actinomyces viscosus [14]; 5 μmol/ml
  extent of growth, maximal OD630 over 48 hr divided by maximal OD of control (control = 1): 0.6862
Actinomyces viscosus [14]; 10 μmol/ml
  extent of growth, maximal OD630 over 48 hr divided by maximal OD of control (control = 1): 0.6163
Actinomyces viscosus [14]; 20 μmol/ml
  extent of growth, maximal OD630 over 48 hr divided by maximal OD of control (control = 1): 0.5787
Actinomyces viscosus [14]; 25 μmol/ml
  extent of growth, maximal OD630 over 48 hr divided by maximal OD of control (control = 1): 0.5023
Veillonella parvula [15]; 5 μmol/ml
  extent of growth, maximal OD630 over 48 hr divided by maximal OD of control (control = 1): 1.0851
Veillonella parvula [15]; 10 μmol/ml
  extent of growth, maximal OD630 over 48 hr divided by maximal OD of control (control = 1): 1.1168
Veillonella parvula [15]; 20 μmol/ml
  extent of growth, maximal OD630 over 48 hr divided by maximal OD of control (control = 1): 1.1378
Veillonella parvula [15]; 25 μmol/ml
  extent of growth, maximal OD630 over 48 hr divided by maximal OD of control (control = 1): 1.1498
Streptococcus mitis [16]; 5 μmol/ml
  extent of growth, maximal OD630 over 48 hr divided by maximal OD of control (control = 1): 1.2333
Streptococcus mitis [16]; 10 μmol/ml
  extent of growth, maximal OD630 over 48 hr divided by maximal OD of control (control = 1): 1.2959
Streptococcus mitis [16]; 20 μmol/ml
  extent of growth, maximal OD630 over 48 hr divided by maximal OD of control (control = 1): 1.2536
Streptococcus mitis [16]; 25 μmol/ml
  extent of growth, maximal OD630 over 48 hr divided by maximal OD of control (control = 1): 1.1257
[17]; 10 μmol/ml
  prebiotic effect (extent of growth): exhibited prebiotic effects
[17]; 20 μmol/ml
  prebiotic effect (extent of growth): exhibited prebiotic effects
